From US20230077362A1 (CORTEVA AGRISCIENCE LLC, priority 2019, published 2023)
Read-outs that look alike come from different tables or passages of the source.

How the values were obtained:
[1] = test system: Beet Armyworm (Spodoptera exigua) ("BAW"), second instar larvae; experiment: Bioassay on beet armyworm (BAW), 128-well diet tray assay; format: in vivo; conditions: for pest or weed control at 50 µg/cm2: Spodoptera exigua; for BAW rating: Table ABC, species BAW, C = not tested, D = no activity noticed
In short: (§1)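 Second-instar larvae on diet in 128-well trays, covered and held at 25° C, 14:10 light-dark, for five to seven days. Percent mortality scored per well and averaged over eight wells; activity reported as a rating category.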

[2] = test system: Cabbage Looper (Trichoplusia ni) ("CL"), second instar larvae; experiment: Bioassay on cabbage looper (CL), 128-well diet tray assay; format: in vivo; conditions: for pest or weed control at 50 µg/cm2: Trichoplusia ni; for CL rating: Table ABC, species CL, C = not tested, D = no activity noticed
In short: as §1

[3] = read-out: BAW (Biological Results, rating)
[4] = read-out: CL (Biological Results, rating)

Row | SMILES | pest or weed control at 50 µg/cm2 [1, 3] | pest or weed control at 50 µg/cm2 [2, 4] | pest or weed control at 50 µg/cm2 ([1]; read-out: BAW rating) | pest or weed control at 50 µg/cm2 ([2]; read-out: CL rating) | also measured
1 | Cc1ccc(COCC(F)(F)F)c(N2C(=O)CS/C2=N\C(=O)Nc2ccc(-c3ncn(-c4ccc(C(F)(F)F)cc4)n3)cc2)c1 [Compound J332, (Z)-1-(3-(5-Methyl-2-((2,2,2-trifluoroethoxy)methyl)phenyl)-4-oxothiazolidin-2-ylidene)-3-(4-(1-(4-(trifluoromethyl)phenyl)-1H-1,2,4-triazol-3-yl)phenyl)urea] | 50 to 100% | 50 to 100% |  |  | 
2 | CCCc1ccc(C)cc1N1C(=O)CS/C1=N\C(=O)Nc1ccc(-c2ncn(-c3ccc(OC(F)(F)C(F)(F)F)cc3)n2)c(C)c1 [Compound J12, (Z)-1-(3-(5-Methyl-2-propylphenyl)-4-oxothiazolidin-2-ylidene)-3-(3-methyl-4-(1-(4-(perfluoroethoxy)phenyl)-1H-1,2,4-triazol-3-yl)phenyl)urea] | 50 to 100% | 50 to 100% |  |  | 
3 | N#CC(CNC(=O)/N=C1\SCC(=O)N1c1cc(Cl)ccc1C(F)(F)F)c1ccc(-c2ncn(-c3ccc(OC(F)(F)F)cc3)n2)cc1 (centres unmarked) [Compound H8, (Z)-1-(3-(5-chloro-2-(trifluoromethyl)phenyl)-4-oxothiazolidin-2-ylidene)-3-(2-cyano-2-(4-(1-(4-(trifluoromethoxy)phenyl)-1H-1,2,4-triazol-3-yl)phenyl)ethyl)urea] | 50 to 100% | 50 to 100% |  |  | 
4 | Cc1ccc(COCC(F)(F)F)c(N2C(=O)CS/C2=N\C(=O)Nc2ccc(-c3ncn(-c4ccc(OC(F)(F)F)cc4)n3)cc2C(F)F)c1 [Compound J215, (Z)-1-(2-(Difluoromethyl)-4-(1-(4-(trifluoromethoxy)phenyl)-1H-1,2,4-triazol-3-yl)phenyl)-3-(3-(5-methyl-2-((2,2,2-trifluoroethoxy)methyl)phenyl)-4-oxothiazolidin-2-ylidene)urea] | 50 to 100% | 50 to 100% |  |  | 
5 | Cc1ccc(COCc2nc3ccccc3s2)c(N2C(=O)CS/C2=N\C(=O)Nc2ccc(-c3ncn(-c4ccc(OC(F)(F)F)cc4)n3)cc2F)c1 [Compound J640, (Z)-1-(3-(2-((Benzo[d]thiazol-2-ylmethoxy)methyl)-5-methylphenyl)-4-oxothiazolidin-2-ylidene)-3-(2-fluoro-4-(1-(4-(trifluoromethoxy)phenyl)-1H-1,2,4-triazol-3-yl)phenyl)urea] |  |  | 50 to 100% | 50 to 100% | 
6 | O=C(/N=C1\SCC(=O)N1c1cc(Cl)ccc1C(F)(F)F)NCC(F)c1ccc(-c2ncn(-c3ccc(OC(F)(F)F)cc3)n2)cc1 (centres unmarked) [Compound H6] | 50 to 100% | 50 to 100% |  |  | 
7 | CC(C)c1ccc(N(C)C)cc1N1C(=O)CS/C1=N\C(=O)Nc1ccc(-c2ncn(-c3cccc(OC(F)(F)F)c3)n2)cc1F [Compound J155, (Z)-1-(3-(5-(Dimethylamino)-2-isopropylphenyl)-4-oxothiazolidin-2-ylidene)-3-(2-fluoro-4-(1-(3-(trifluoromethoxy)phenyl)-1H-1,2,4-triazol-3-yl)phenyl)urea] | 50 to 100% | 50 to 100% |  |  | 
8 | CC(C)c1cc(F)c(N(C)C)cc1N1C(=O)CS/C1=N\C(=O)Nc1ccc(-c2ncn(-c3ccc(S(=O)(=O)C(F)(F)F)cc3)n2)cc1F [Compound J371, (Z)-1-(3-(5-(dimethylamino)-4-fluoro-2-isopropylphenyl)-4-oxothiazolidin-2-ylidene)-3-(2-fluoro-4-(1-(4-((trifluoromethyl)sulfonyl)phenyl)-1H-1,2,4-triazol-3-yl)phenyl)urea] |  |  | 50 to 100% | 50 to 100% | 
9 | CC(C)c1cc(F)c(N(C)C)cc1N1C(=O)CS/C1=N\C(=O)Nc1ccc(-c2ncn(-c3ccc(SC(F)(F)F)cc3)n2)cc1 [Compound J389, (Z)-1-(3-(5-(Dimethylamino)-4-fluoro-2-isopropylphenyl)-4-oxothiazolidin-2-ylidene)-3-(4-(1-(4-((trifluoromethyl)thio)phenyl)-1H-1,2,4-triazol-3-yl)phenyl)urea] |  |  | 50 to 100% | 50 to 100% | 
10 | Cc1ccc(COCC(F)(F)F)c(N2C(=O)CS/C2=N\C(=O)Nc2ccc(-c3ncn(-c4cccc(C(F)(F)F)c4)n3)cc2C)c1 [Compound J727] |  |  |  |  | BAW rating [1]: A (50-100); CL rating [2]: A (50-100)
11 | Cc1ccc(COCC(F)(F)F)c(N2C(=O)CS/C2=N\C(=O)Nc2ccc(-c3ncn(-c4ccc(F)cc4)n3)cc2F)c1 [Compound J782, (Z)-1-(2-Fluoro-4-(1-(4-fluorophenyl)-1H-1,2,4-triazol-3-yl)phenyl)-3-(3-(5-methyl-2-((2,2,2-trifluoroethoxy)methyl)phenyl)-4-oxothiazolidin-2-ylidene)urea] |  |  | 50 to 100% | 50 to 100% | 
12 | CCOc1ccc(-n2cnc(-c3ccc(NC(=O)/N=C4\SCC(=O)N4c4cc(C)ccc4COCC(F)(F)F)c(F)c3)n2)cc1 [Compound J625] |  |  |  |  | BAW rating [1]: A (50-100); CL rating [2]: A (50-100)
13 | Cc1ccc(OCCC(F)(F)F)c(N2C(=O)CS/C2=N\C(=O)Nc2ccc(-c3ncn(-c4ccc(S(F)(F)(F)(F)F)cc4)n3)cc2F)c1 [Compound J447] |  |  | 50 to 100% | 50 to 100% | 
14 | Cc1ccc(COCC(F)(F)F)c(N2C(=O)CS/C2=N\C(=O)Nc2ccc(-c3ncn(-c4ccccc4)n3)cc2F)c1 [Compound J769, (Z)-1-(2-Fluoro-4-(1-phenyl-1H-1,2,4-triazol-3-yl)phenyl)-3-(3-(5-methyl-2-((2,2,2-trifluoroethoxy)methyl)phenyl)-4-oxothiazolidin-2-ylidene)urea] |  |  | 50 to 100% | 50 to 100% | 
15 | CCOCc1ccc(C)cc1N1C(=O)CS/C1=N\C(=O)Nc1ccc(-c2ncn(-c3ccc(S(F)(F)(F)(F)F)cc3)n2)cc1C#N [Compound J582] |  |  | 50 to 100% | 50 to 100% | 
16 | CN(C)c1ccc(OCCC(F)(F)F)c(N2C(=O)CS/C2=N\C(=O)Nc2ccc(-c3ncn(-c4ccc(OC(F)(F)F)cc4)n3)cc2)c1 [Compound J321, (Z)-1-(3-(5-(Dimethylamino)-2-(3,3,3-trifluoropropoxy)phenyl)-4-oxothiazolidin-2-ylidene)-3-(4-(1-(4-(trifluoromethoxy)phenyl)-1H-1,2,4-triazol-3-yl)phenyl)urea] | 50 to 100% | 50 to 100% |  |  | 
17 | CCOCc1ccc(C)cc1N1C(=O)CS/C1=N\C(=O)Nc1ccc(-c2ncn(-c3ccc(S(F)(F)(F)(F)F)cc3)n2)cc1F [Compound J445] |  |  |  |  | BAW rating [1]: A (50-100); CL rating [2]: A (50-100)
18 | Cc1ccc(COCC(F)(F)F)c(N2C(=O)CS/C2=N\C(=O)Nc2ccc(-c3ncn(-c4ccc(OCC#N)cc4)n3)cc2F)c1 [Compound J343, (Z)-1-(4-(1-(4-(Cyanomethoxy)phenyl)-1H-1,2,4-triazol-3-yl)-2-fluorophenyl)-3-(3-(5-methyl-2-((2,2,2-trifluoroethoxy)methyl)phenyl)-4-oxothiazolidin-2-ylidene)urea] | 50 to 100% | 50 to 100% |  |  | 
19 | COc1ccc(C(C)C)c(N2C(=O)CS/C2=N\C(=O)Nc2ccc(-c3ncn(-c4ccc(C(F)(F)F)cn4)n3)cc2C)c1 [Compound J292, (Z)-1-(3-(2-Isopropyl-5-methoxyphenyl)-4-oxothiazolidin-2-ylidene)-3-(2-methyl-4-(1-(5-(trifluoromethyl)pyridin-2-yl)-1H-1,2,4-triazol-3-yl)phenyl)urea] | 50 to 100% | 50 to 100% |  |  | 
